Data as given in US20230295116A1, “PROTEASOME ENHANCERS AND USES THEREOF” (Board of Trustees of Michigan State University, priority 2020, published 2023).

Assays:
[1] = target: T1, human constitutive 20S proteasome (Homo sapiens, UniProt P25787+P60900); test: Fluorogenic peptide degradation 20S proteasome activity assay; assay type: biochemical; settings: for AC200 (doubling of 20S activity): combination of the three fluorogenic peptide substrates (CT-L, T-L, Casp-L)
T1 construct: purchased Boston Biochem, Inc. (Cambridge, MA)
Text: These substrates were a chymotryptic-like (CT-L), a trypsin-like (T-L) and a caspase-like (Casp-L) substrate, one for each of the catalytic sites of the proteasome. It has been shown that the proteasome’s active sites allosterically regulate each other in the presence of their individual substrates. Therefore, a combination of the three probes to represent the overall activity of a 20S activator more accurately in a system in which all catalytic sites are interacting.
The 20S activity of astemizoles and N-acylastemizole (compound 2) was further assessed in the fluorogenic peptide assay, using each of the individual substrates as well as the combination of the three (FIG. 1B). […] The N-acylated analog achieved similar max fold increases for each substrate/combination (>800% increase over vehicle).
Activity assays were carried out in a 100 µL reaction volume. Different concentrations (1-80 µM) of test compounds were added to a black flat/clear bottom 96-well plate containing 1 nM of human constitutive 20S proteasome, in 50 mM Tris-HCl at pH 7.8, 100 mM NaCl and allowed to incubate for 15 min at 37° C. Fluorogenic substrates were then added and the enzymatic activity measured at 37° C. on a SpectraMax M5e spectrometer by measuring the change in fluorescence unit per minute for 1 hour at 380-460 nm. The fluorescence units for the vehicle control were set at a 100%, and the ratio of drug-treated sample set to that of vehicle control was used to calculate the fold change in enzymatic activity. The fluorogenic substrates used were one of the following: Suc-LLVY-AMC (CT-L activity, 20 µM), Z-LLE-AMC (Casp-L activity, 20 µM), Boc-LRR-AMC (T-L activity, 40 µM) or a combination of the three substrates each at 6.67 µM.

NF-kB transcription = test: NF-κB reporter assay (luciferase); assay type: cell-based; settings: Homo sapiens; HCT-116 NF-kappaB-luc reporter cells, TNF-alpha 2 ng/mL, 16 hours, n=3; read-out: EC50 for inhibition of NF-kB transcription
Protocol: (§1) Firefly luminescence was measured using the One-Step Luciferase Assay System from BPS Biosciences.

[2] = test system: MYC-mediated gene transcription; test: Myc reporter assay (luciferase); assay type: cell-based; settings: Homo sapiens, HCT-116; HCT116 Myc-Luc reporter cells, 16 hours, n=3; read-out: EC50 for inhibition of c-MYC
Protocol: as §1, §1

Row | activation of catalytic sites of the 20S proteasome ([1]; CT-L, T-L and Casp-L substrates) | AC200 (doubling of 20S activity) [1] [µM] | EC50 (NF-kB transcription) [µM] | max fold increase (increase over vehicle) ([1]; each substrate/combination) [%] | EC50 [2] [µM] | Structure (SMILES)
1 | activates all three catalytic sites | 3.3 |  |  |  | COc1ccc(CCN2CCC(Nc3nc4ccccc4n3Cc3ccc(F)cc3)CC2)cc1 [Compound 1, astemizole, reference compound]
2 |  | 3.9 | 18 | > 800 | 19 | COc1ccc(CC(=O)N2CCC(Nc3nc4ccccc4n3Cc3ccc(F)cc3)CC2)cc1 [Compound 2, 1-(4-((1-(4-fluorobenzyl)-1H-benzo[d]imidazol-2-yl)amino)piperidin-1-yl)-2-(4-methoxyphenyl)ethan-1-one]
